Measured values taken from the supplement of paper PMC13380429.

Assays:
Conditions in all cases: 72 h
[1] = test system: U2OS; assay: relative viability EC50 (midpoint between 100% and the lowest measured viability); higher = less toxic
[2] = test system: Calu-3; assay: as above
[3] = test system: Vero E6; assay: as above
[4] = test system: Caco-2; assay: as above
[5] = test system: HepG2; assay: as above
[6] = test system: U2OS; assay: cell viability relative to DMSO; higher = less toxic
[7] = test system: Calu-3; assay: as above
[8] = test system: Vero E6; assay: as above
[9] = test system: Caco-2; assay: as above
[10] = test system: HepG2; assay: as above
[11] = test system: U2OS; assay: drug sensitivity score (DSS) for viability; higher = more toxic; extreme values may be limits of the assay
[12] = test system: Calu-3; assay: as above
[13] = test system: Vero E6; assay: as above
[14] = test system: Caco-2; assay: as above
[15] = test system: HepG2; assay: as above

SMILES	relative viability EC50 [1]	relative viability EC50 [2]	relative viability EC50 [3]	relative viability EC50 [4]	relative viability EC50 [5]	cell viability ([6]; 1 nM)	cell viability ([6]; 10 nM)	cell viability ([6]; 100 nM)	cell viability ([6]; 1000 nM)	cell viability ([6]; 10000 nM)	cell viability ([7]; 1 nM)	cell viability ([7]; 10 nM)	cell viability ([7]; 100 nM)	cell viability ([7]; 1000 nM)	cell viability ([7]; 10000 nM)	cell viability ([8]; 1 nM)	cell viability ([8]; 10 nM)	cell viability ([8]; 100 nM)	cell viability ([8]; 1000 nM)	cell viability ([8]; 10000 nM)	cell viability ([9]; 1 nM)	cell viability ([9]; 10 nM)	cell viability ([9]; 100 nM)	cell viability ([9]; 1000 nM)	cell viability ([9]; 10000 nM)	cell viability ([10]; 1 nM)	cell viability ([10]; 10 nM)	cell viability ([10]; 100 nM)	cell viability ([10]; 1000 nM)	cell viability ([10]; 10000 nM)	drug sensitivity score [11]	drug sensitivity score [12]	drug sensitivity score [13]	drug sensitivity score [14]	drug sensitivity score [15]
O=C1NCCN1c1ncc([N+](=O)[O-])s1 [niridazole]	> 10 µM	> 10 µM	> 10 µM	> 10 µM	> 10 µM	97.1%	98.7%	99.3%	94.8%	99.8%	99.6%	107%	96.6%	88%	103%	102%	104%	108%	115%	85.5%	105%	80.1%	93.2%	87.8%	102%	105%	98.8%	105%	106%	97.8%	0	0	0.1	0	0
CC(C)C[C@@H](N)C(=O)N[C@H]1C(=O)N[C@@H](CC(N)=O)C(=O)N[C@H]2C(=O)N[C@H]3C(=O)N[C@H](C(=O)N[C@H](C(=O)O)c4cc(O)cc(O)c4-c4cc3ccc4O)[C@H](O)c3ccc(c(Cl)c3)Oc3cc2cc(c3O[C@@H]2O[C@H](CO)[C@@H](O)[C@H](O)[C@H]2O[C@H]2C[C@](C)(N)[C@H](O)[C@H](C)O2)Oc2ccc(cc2Cl)[C@H]1O [norvancomycin]	> 10 µM	> 10 µM	> 10 µM	> 10 µM	> 10 µM	100%	104%	96.6%	102%	102%	102%	100%	104%	97.9%	91.9%	109%	94.8%	102%	97%	104%	91.9%	93.8%	104%	95.7%	98.5%	102%	95.8%	97.3%	86.9%	97.7%	0	0	0	0	0
CCCCCCCCN=c1ccn(CCCCCCCCCCn2ccc(=NCCCCCCCC)cc2)cc1 [octenidine]	2.31 µM	3.07 µM	1.91 µM	1.65 µM	1.27 µM	95.5%	104%	95.4%	89.9%	2.7%	106%	101%	98.6%	98.6%	0.7%	96.8%	94.7%	92.5%	83.7%	0.1%	98.7%	97.5%	101%	78%	1%	89.6%	93.4%	102%	65.6%	2.6%	7	5.7	8.2	8.9	10.2
COC(=O)N1CCN(Cc2cccc(NC(=O)Nc3ccc(C)nc3)c2F)CC1 [omecamtiv-mecarbil]	> 10 µM	> 10 µM	> 10 µM	> 10 µM	> 10 µM	97%	101%	93.3%	99%	97.4%	92.4%	94.4%	107%	97.4%	99.9%	105%	100%	104%	101%	99.1%	93%	89.7%	95.3%	96.3%	87%	105%	96.1%	100%	98.5%	97.1%	0	0	0	0	0
COc1ccc2[nH]c([S+]([O-])Cc3ncc(C)c(OC)c3C)nc2c1 (stereo not given) [omeprazole-magnesium]	> 10 µM	> 10 µM	> 10 µM	> 10 µM	> 10 µM	96.6%	97.3%	102%	94.3%	96%	93.3%	104%	98.7%	95.5%	98.9%	102%	105%	96.2%	96.3%	110%	90.7%	72.4%	100%	97.4%	107%	87.7%	98.4%	86.3%	99.7%	95.1%	0	0	0	0	0
COc1ccc2[nH]c([S+]([O-])Cc3ncc(C)c(OC)c3C)nc2c1 (stereo not given) [omeprazole]	> 10 µM	> 10 µM	> 10 µM	> 10 µM	> 10 µM	106%	98.4%	101%	104%	98.6%	115%	94.3%	103%	104%	113%	98.5%	106%	102%	107%	103%	104%	92.2%	103%	99%	95%	102%	96.6%	99.4%	99.5%	97%	0	0	0	0	0
Cc1[nH]c(/C=C2\C(=O)Nc3ccccc32)c(C)c1CCC(=O)O [orantinib]	> 10 µM	> 10 µM	> 10 µM	> 10 µM	> 10 µM	98.1%	94.3%	101%	99.1%	98.4%	98.8%	104%	107%	106%	99.2%	107%	103%	103%	96.2%	98.1%	101%	96.9%	102%	104%	97.5%	98.3%	103%	106%	98.7%	100%	0	0	0	0	0
Cc1nc2n(c(=O)c1CCN1CCC(c3noc4cc(F)ccc34)CC1)CCCC2O (stereo not given) [paliperidone]	> 10 µM	> 10 µM	> 10 µM	> 10 µM	> 10 µM	99.5%	103%	97%	101%	99.9%	104%	104%	93.2%	100%	102%	113%	106%	109%	103%	92.4%	93.6%	106%	90.7%	104%	118%	107%	104%	108%	95%	100%	0	0	0	0	0
Cc1cccc(Nc2cc(Cl)nc(SCC(=O)O)n2)c1C [pirinixic-acid]	> 10 µM	> 10 µM	> 10 µM	> 10 µM	> 10 µM	103%	104%	95.7%	102%	97.1%	99.9%	102%	93.7%	114%	97.4%	100%	95.3%	98.8%	95.9%	100%	90%	95.2%	98.8%	98.1%	87.2%	98.8%	99.4%	94.8%	99.2%	101%	0	0	0	0	0
CC(C)(C)C(=O)NCCCC(=O)O [pivagabine]	> 10 µM	> 10 µM	> 10 µM	> 10 µM	> 10 µM	101%	105%	98.4%	101%	102%	101%	110%	98.3%	99.1%	106%	95.1%	99.2%	96.4%	98.3%	91.7%	92.3%	97.2%	88.8%	95.9%	92.2%	99%	111%	98.5%	106%	108%	0	0	0	0	0
CC(C(=O)O)c1ccc2c(c1)Cc1cccnc1O2 (stereo not given) [pranoprofen]	> 10 µM	> 10 µM	> 10 µM	> 10 µM	> 10 µM	104%	99.1%	95.2%	104%	106%	97.5%	92.9%	97.1%	100%	108%	96.2%	96.5%	98.4%	100%	105%	88.3%	86.7%	89.5%	95.3%	102%	95.8%	103%	94.1%	104%	111%	0	0	0	0	0
CC(=O)[C@H]1CC[C@H]2[C@@H]3CCC4=CC(=O)CC[C@]4(C)[C@H]3CC[C@]12C [progesterone]	> 10 µM	> 10 µM	> 10 µM	> 10 µM	> 10 µM	100%	98%	101%	100%	96.8%	95%	98.4%	87.2%	94.5%	92%	92%	108%	91.3%	96.8%	110%	97.4%	98.8%	98.4%	87.2%	82.9%	102%	99.9%	102%	96.4%	95.6%	0	0	0	1.3	0
COc1ccccc1OCC(O)CN1CCN(CC(=O)Nc2c(C)cccc2C)CC1 (stereo not given) [ranolazine]	> 10 µM	> 10 µM	> 10 µM	> 10 µM	> 10 µM	98.6%	93.4%	102%	96.1%	102%	95%	91.8%	102%	105%	105%	90.5%	97.3%	89.5%	90.7%	104%	100%	96.9%	106%	99.2%	99.1%	97.5%	97.9%	93%	96.7%	102%	0	0	0	0	0
